Test results published in patent US8546377B2 (AbbVie Inc., priority 2009, dated 2013).
Like-named read-outs stand apart in the source and are kept apart here.

Legend:
5HT2C receptors = target: T1, 5HT2C receptors (Homo sapiens, UniProt P28335); assay: Human 5-HT2C functional assay in CHO-K1 cells (calcium flux, FLIPR); assay type: cell-based; set-up: expressed in transfected cells; host or cells: CHO-K1 cells; details: for Emax: percentage relative to the effect of serotonin
T1 sequence (P28335 33-458): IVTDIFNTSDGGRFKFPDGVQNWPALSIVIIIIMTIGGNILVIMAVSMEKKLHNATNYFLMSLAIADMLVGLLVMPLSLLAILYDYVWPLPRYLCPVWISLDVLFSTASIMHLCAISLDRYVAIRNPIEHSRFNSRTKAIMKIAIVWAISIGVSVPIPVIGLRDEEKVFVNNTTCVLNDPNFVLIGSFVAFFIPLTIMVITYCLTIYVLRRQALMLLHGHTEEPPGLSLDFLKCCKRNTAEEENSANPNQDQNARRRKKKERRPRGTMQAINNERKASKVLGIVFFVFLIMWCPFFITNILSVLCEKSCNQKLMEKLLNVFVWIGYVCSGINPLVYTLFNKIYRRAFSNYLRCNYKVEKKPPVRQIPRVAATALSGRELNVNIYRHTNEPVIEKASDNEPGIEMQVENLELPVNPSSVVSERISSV
In short: (§1)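 Frozen CHO-K1 cells over-expressing receptor, serum-starved overnight, loaded with Ca4 dye plus 2.5 mM probenecid for 60 min at room temperature. FLIPR fluorescence (ex 480/em 530 nm, 25° C) recorded 3 min after compound addition; 6-point 1:10 series from 10 μM, 0.2% DMSO. Response normalized to serotonin, 4-parameter fit gives EC50; Emax as % of serotonin.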

5HT2B receptors = target: T2, 5HT2B receptors (Homo sapiens, UniProt P41595); assay: Human 5-HT2B functional assay in CHO-K1 cells (calcium flux, FLIPR); assay type: cell-based
T2 construct: expressed in transfected cells; host or cells: CHO-K1 cells
In short: as §1

[1] = CHO-K1 cells over-expressing 5HT2C, calcium flux, read-out: EC50 (μM), 5-HT2c Agonist Activity
[2] = CHO-K1 cells, read-out: Emax (%), 5-HT2c Agonist Activity
[3] = CHO-K1 cells over-expressing 5HT2B, calcium flux, read-out: EC50 (μM), 5-HT2B Agonist Activity
[4] = CHO-K1 cells, percentage relative to the effect of serotonin, read-out: Emax (%), 5-HT2B Agonist Activity
[5] = CHO-K1, read-out: Emax (%), 5-HT2c Agonist Activity, CHO-K1 cells

T2 sequence (P41595 whole entry): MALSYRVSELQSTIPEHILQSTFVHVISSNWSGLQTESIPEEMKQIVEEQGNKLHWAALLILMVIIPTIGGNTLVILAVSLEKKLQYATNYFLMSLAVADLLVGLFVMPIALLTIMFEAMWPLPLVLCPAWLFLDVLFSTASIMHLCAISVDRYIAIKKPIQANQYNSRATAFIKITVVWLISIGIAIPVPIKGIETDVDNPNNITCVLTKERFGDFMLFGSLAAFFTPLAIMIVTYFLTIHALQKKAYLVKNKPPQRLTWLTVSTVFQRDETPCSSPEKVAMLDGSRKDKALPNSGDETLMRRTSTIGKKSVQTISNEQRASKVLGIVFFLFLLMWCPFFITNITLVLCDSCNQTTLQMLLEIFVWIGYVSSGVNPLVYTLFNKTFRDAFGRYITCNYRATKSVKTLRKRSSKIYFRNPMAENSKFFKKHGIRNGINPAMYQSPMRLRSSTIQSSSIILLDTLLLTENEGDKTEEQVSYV

| SMILES | EC50 (5HT2C receptors; [1]) | Emax (5HT2C receptors; [2]) | EC50 (5HT2B receptors; [3]) | Emax (5HT2B receptors; [4]) | EC50 (5HT2C receptors) | Emax (5HT2C receptors; [5]) | EC50 (5HT2B receptors) | Emax (5HT2B receptors; CHO-K1, read-out: Emax (%), 5-HT2B Agonist Activity) |
| --- | --- | --- | --- | --- | --- | --- | --- | --- |
| O=C1C[C@H]2CNCCN2c2cc(OCCc3cccc(Cl)c3)ccc2N1 [Example 175, (4aS)-10-[2-(3-chlorophenyl)ethoxy]-1,2,3,4,4a,5-hexahydropyrazino[1,2-a][1,5]benzodiazepin-6(7H)-one] | 0.001 µM | > 120% | 0.5 µM | 20% |  |  |  |  |
| Cc1cccc(CCOc2ccc3c(c2)N2CCNC[C@@H]2CC(=O)N3)c1 [Example 176, (4aS)-10-[2-(3-methylphenyl)ethoxy]-1,2,3,4,4a,5-hexahydropyrazino[1,2-a][1,5]benzodiazepin-6(7H)-one] | 0.002 µM | 100% | 1 µM | 10% |  |  |  |  |
| CCC(Oc1ccc2c(c1)N1CCNC[C@@H]1CC(=O)N2)c1ccccc1 (stereo partly drawn) [Example 177, (4aS)-10-(1-phenylpropoxy)-1,2,3,4,4a,5-hexahydropyrazino[1,2-a][1,5]benzodiazepin-6(7H)-one] | 0.06 µM | 110% | > 10 µM |  |  |  |  |  |
| C[C@@H](Oc1ccc2c(c1)N1CCNC[C@@H]1CC(=O)N2)c1cc(F)ccc1F [Example 178, (4aS)-10-[(1R)-1-(2,5-difluorophenyl)ethoxy]-1,2,3,4,4a,5-hexahydropyrazino[1,2-a][1,5]benzodiazepin-6(7H)-one] | 0.001 µM | 100% | 0.04 µM | 45% |  |  |  |  |
| Clc1ccc2c(c1)OCC[C@H]1CNCCN21 [Example 179, (4aS)-9-chloro-2,3,4,4a,5,6-hexahydro-1H-pyrazino[2,1-d][1,5]benzoxazepine] |  |  |  |  | 0.008 µM | > 120% | > 10 µM |  |
| c1ccc2c(c1)CCCC1CNCCN21 (stereo not drawn) [Example 182, 1,2,3,4,4a,5,6,7-octahydropyrazino[1,2-a][1]benzazepine] |  |  |  |  | 0.007 µM | > 120% | 0.1 µM | 40% |
| CN1CCN2c3ccccc3CCCC2C1 (stereo not drawn) [Example 183, 3-methyl-1,2,3,4,4a,5,6,7-octahydropyrazino[1,2-a][1]benzazepine] |  |  |  |  | 0.003 µM | > 120% | > 10 µM |  |
| O=C1CC2CNCCN2c2cc(Cc3ccccc3)ccc2N1 (stereo not drawn) [Example 185, 10-benzyl-1,2,3,4,4a,5-hexahydropyrazino[1,2-a][1,5]benzodiazepin-6(7H)-one] | 0.03 µM | > 120% | > 10 µM |  |  |  |  |  |
| Clc1ccc2c(c1)N1CCN(Cc3ccccc3)C[C@@H]1CCO2 [Example 186, (4aS)-3-benzyl-10-chloro-2,3,4,4a,5,6-hexahydro-1H-pyrazino[2,1-d][1,5]-benzoxazepine] | 0.8 µM | > 120% | > 10 µM |  |  |  |  |  |
| c1ccc(-c2ccc3c(c2)N2CCNC[C@@H]2CCO3)cc1 [Example 187, (4aS)-10-phenyl-2,3,4,4a,5,6-hexahydro-1H-pyrazino[2,1-d][1,5]benzoxazepine] | 0.03 µM | > 120% | 6 µM | 10% |  |  |  |  |
| CN1CCN2c3cc(Cl)ccc3OCC[C@H]2C1 [Example 188, (4aS)-10-chloro-3-methyl-2,3,4,4a,5,6-hexahydro-1H-pyrazino[2,1-d][1,5]benzoxazepine] |  |  |  |  | 0.01 µM | 70% | > 10 µM |  |
| Cc1ccccc1-c1ccc2c(c1)N1CCNC[C@@H]1CCO2 [Example 189, (4aS)-10-(2-methylphenyl)-2,3,4,4a,5,6-hexahydro-1H-pyrazino[2,1-d][1,5]benzoxazepine] | 0.03 µM | > 120% | 1 µM | 20% |  |  |  |  |
| Cc1cccc(-c2ccc3c(c2)N2CCNC[C@@H]2CCO3)c1 [Example 190, (4aS)-10-(3-methylphenyl)-2,3,4,4a,5,6-hexahydro-1H-pyrazino[2,1-d][1,5]benzoxazepine] | 0.02 µM | > 120% | > 10 µM |  |  |  |  |  |
| Cc1ccc(-c2ccc3c(c2)N2CCNC[C@@H]2CCO3)cc1 [Example 191, (4aS)-10-(4-methylphenyl)-2,3,4,4a,5,6-hexahydro-1H-pyrazino[2,1-d][1,5]benzoxazepine] | 0.4 µM | > 120% | > 10 µM |  |  |  |  |  |
| COc1ccccc1-c1ccc2c(c1)N1CCNC[C@@H]1CCO2 [Example 192, (4aS)-10-(2-methoxyphenyl)-2,3,4,4a,5,6-hexahydro-1H-pyrazino[2,1-d][1,5]benzoxazepine] | 0.03 µM | > 120% | 1 µM | 10% |  |  |  |  |
| COc1cccc(-c2ccc3c(c2)N2CCNC[C@@H]2CCO3)c1 [Example 193, (4aS)-10-(3-methoxyphenyl)-2,3,4,4a,5,6-hexahydro-1H-pyrazino[2,1-d][1,5]benzoxazepine] | 0.008 µM | > 120% | 1 µM | 25% |  |  |  |  |
| COc1ccc(-c2ccc3c(c2)N2CCNC[C@@H]2CCO3)cc1 [Example 194, (4aS)-10-(4-methoxyphenyl)-2,3,4,4a,5,6-hexahydro-1H-pyrazino[2,1-d][1,5]benzoxazepine] | 0.4 µM | > 120% | > 10 µM |  |  |  |  |  |
| CS(=O)(=O)c1ccccc1-c1ccc2c(c1)N1CCNC[C@@H]1CCO2 [Example 195, (4aS)-10-[2-(methylsulfonyl)phenyl]-2,3,4,4a,5,6-hexahydro-1H-pyrazino[2,1-d][1,5]benzoxazepine] | 0.007 µM | > 120% | 0.3 µM | 55% |  |  |  |  |
| CS(=O)(=O)c1cccc(-c2ccc3c(c2)N2CCNC[C@@H]2CCO3)c1 [Example 196, (4aS)-10-[3-(methylsulfonyl)phenyl]-2,3,4,4a,5,6-hexahydro-1H-pyrazino[2,1-d][1,5]benzoxazepine] | 0.009 µM | > 120% | > 10 µM |  |  |  |  |  |
| CC(=O)c1ccccc1-c1ccc2c(c1)N1CCNC[C@@H]1CCO2 [Example 197, 1-{2-[(4aS)-2,3,4,4a,5,6-hexahydro-1H-pyrazino[2,1-d][1,5]benzoxazepin-10-yl]phenyl}ethanone] | 0.07 µM | > 120% | 1 µM | 15% |  |  |  |  |
| CC(=O)c1cccc(-c2ccc3c(c2)N2CCNC[C@@H]2CCO3)c1 [Example 198, 1-{3-[(4aS)-2,3,4,4a,5,6-hexahydro-1H-pyrazino[2,1-d][1,5]benzoxazepin-10-yl]phenyl}ethanone] | 0.01 µM | > 120% | 1 µM | 25% |  |  |  |  |
| CC(=O)c1ccc(-c2ccc3c(c2)N2CCNC[C@@H]2CCO3)cc1 [Example 199, 1-{4-[(4aS)-2,3,4,4a,5,6-hexahydro-1H-pyrazino[2,1-d][1,5]benzoxazepin-10-yl]phenyl}ethanone] | 0.9 µM | > 120% | 8 µM | 10% |  |  |  |  |
| Oc1ccccc1-c1ccc2c(c1)N1CCNC[C@@H]1CCO2 [Example 200, 2-[(4aS)-2,3,4,4a,5,6-hexahydro-1H-pyrazino[2,1-d][1,5]benzoxazepin-10-yl]phenol] | 0.01 µM | > 120% | > 10 µM |  |  |  |  |  |
| Oc1cccc(-c2ccc3c(c2)N2CCNC[C@@H]2CCO3)c1 [Example 201, 3-[(4aS)-2,3,4,4a,5,6-hexahydro-1H-pyrazino[2,1-d][1,5]benzoxazepin-10-yl]phenol] | 0.2 µM | > 120% | > 10 µM |  |  |  |  |  |
| Oc1ccc(-c2ccc3c(c2)N2CCNC[C@@H]2CCO3)cc1 [Example 202, 4-[(4aS)-2,3,4,4a,5,6-hexahydro-1H-pyrazino[2,1-d][1,5]benzoxazepin-10-yl]phenol] | 0.005 µM | > 120% | 1 µM | 15% |  |  |  |  |
| Fc1ccccc1-c1ccc2c(c1)N1CCNC[C@@H]1CCO2 [Example 203, (4aS)-10-(2-fluorophenyl)-2,3,4,4a,5,6-hexahydro-1H-pyrazino[2,1-d][1,5]-benzoxazepine] | 0.02 µM | > 120% | 2 µM | 15% |  |  |  |  |
| Fc1cccc(-c2ccc3c(c2)N2CCNC[C@@H]2CCO3)c1 [Example 204, (4aS)-10-(3-fluorophenyl)-2,3,4,4a,5,6-hexahydro-1H-pyrazino[2,1-d][1,5]benzoxazepine] | 0.05 µM | > 120% | > 10 µM |  |  |  |  |  |
| Fc1ccc(-c2ccc3c(c2)N2CCNC[C@@H]2CCO3)cc1 [Example 205, (4aS)-10-(4-fluorophenyl)-2,3,4,4a,5,6-hexahydro-1H-pyrazino[2,1-d][1,5]benzoxazepine] | 0.05 µM | > 120% | 5 µM | 10% |  |  |  |  |
| c1cncc(-c2ccc3c(c2)N2CCNC[C@@H]2CCO3)c1 [Example 206, (4aS)-10-(pyridin-3-yl)-2,3,4,4a,5,6-hexahydro-1H-pyrazino[2,1-d][1,5]benzoxazepine] |  |  |  |  | 0.07 µM | > 120% | > 10 µM |  |
